Results reported in patent publication US20090018111A1, “Novel Antimicrobial Medicament” (priority 2004, published 2009).
Where two headings read alike, the source gives them in different places.

Tests used:
C. freundii GN346 = assay: Sensitivity test (agar dilution); format: cell-based, Citrobacter freundii; conditions: Citrobacter freundii, C. freundii GN346
Method: (§1) The antibacterial activities were tested against various 18 bacteria (27 standard strains) which are representative bacteria caused clinically infectious disease (Staphylococcus aureus 3 strains, Staphylococcus epidermidis 1 strain, Micrococcus luteus 1 strain, Streptococcus pyogenes 1 strain, Enterococcus faecalis 1 strain, Enterococcus faecium 1 strain, Bacillus subtilis 1 strain, Escherichia coli 3 strains, Klebsiella pneumoniae 1 strain, Proteus mirabilis 1 strain, Proteus vulgaris 2 strains, Pseudomonas aeruginosa 3 strains, Serratia marcescens 2 strains, Enterobacter aerogenes 1 strain, Stenotrophomonas maltophilia 1 strain, Enterobacter cloacae 1 strain, Citrobacter freundii 1 strain, Moraxella catarrhalis 2 strains).
(§2) According to the standard method of Japan Chemotherapeutic Society (Chemotherapy, vol. […], p 76-79 (1981)) the test was carried out using the agar dilution method. After dissolving test samples in distilled water, agar medium containing the test samples was prepared in such a manner that the final concentration became twice serial dilution by pouring serially diluted combination drug solution or a single drug solution into agar medium. As agar medium was used Mueller Hinton Agar medium (MHA). Then, each strain was cultivated over night at 37° C. in an incubator and suspended in buffered saline solution with gelatin (BSG) in the concentration of about 10^6 CFU/ml. The suspension (about 5 μl) containing test strains was inoculated to the medium containing the test samples by Micro Planter.
(§3) When the sample is subjected to sensitivity test, this mixed solution was diluted by twice serial dilution method.
(§4) Furthermore, when the drug is solely used, each test sample was used as it is, and diluted by twice serial dilution method from the maximum concentration to the minimum concentration.
(§5) FIC index based on MIC value was calculated. […] Namely, when FIC index calculated by the following formula is equal or less than 1, the enhanced effect of the combination drug in said ratio is considered as positive. When FIC index is over 1, the enhanced effect of the combination drug in said ratio is considered as negative.
(§6) Formula of FIC index: FIC index=(MIC of Drug A in combination/MIC of Drug A alone)+(MIC of Drug B in combination/MIC of Drug B alone) N.C. in tables means being not calculated.

E. cloacae GN7471 = assay: Sensitivity test (agar dilution); format: cell-based, Enterobacter cloacae; conditions: Enterobacter cloacae, E. cloacae GN7471
Method: as §1, §2, §3, §4, §5, §6

S. epidermidis IAM1296 = assay: Sensitivity test (agar dilution); format: cell-based, Staphylococcus epidermidis; conditions: Staphylococcus epidermidis, S. epidermidis IAM1296
Method: as §1, §2, §3, §4, §5, §6

P. aeruginosa IFO3451 = assay: Sensitivity test (agar dilution); format: cell-based, Pseudomonas aeruginosa; conditions: Pseudomonas aeruginosa, P. aeruginosa IFO3451
Method: as §1, §2, §3, §4, §5, §6

P. aeruginosa TL-2667 = assay: Sensitivity test (agar dilution); format: cell-based, Pseudomonas aeruginosa; conditions: Pseudomonas aeruginosa, P. aeruginosa TL-2667
Method: as §1, §2, §3, §4, §5, §6

P. aeruginosa TL-2666 = assay: Sensitivity test (agar dilution); format: cell-based, Pseudomonas aeruginosa; conditions: Pseudomonas aeruginosa, P. aeruginosa TL-2666
Method: as §1, §2, §3, §4, §5, §6

P. mirabiris GN2425 = assay: Sensitivity test (agar dilution); format: cell-based, Proteus mirabilis; conditions: Proteus mirabilis, P. mirabiris GN2425
Method: as §1, §2, §3, §4, §5, §6

E. coli ML1410 RP4 = assay: microbe, parasite or virus in culture; format: cell-based, Escherichia coli; conditions: Escherichia coli, E. coli ML1410 RP4
Method: as §1, §2, §3, §4, §5, §6

M. catarrhalis ATCC25238 = assay: Sensitivity test (agar dilution); format: cell-based, Moraxella catarrhalis; conditions: Moraxella catarrhalis, M. catarrhalis ATCC25238
Method: as §1, §2, §3, §4, §5, §6

M. catarrhalis ATCC8176 = assay: Sensitivity test (agar dilution); format: cell-based, Moraxella catarrhalis; conditions: Moraxella catarrhalis, M. catarrhalis ATCC8176
Method: as §1, §2, §3, §4, §5, §6

E. faecalis ATCC19433 = assay: Sensitivity test (agar dilution); format: cell-based, Enterococcus faecalis; conditions: Enterococcus faecalis, E. faecalis ATCC19433
Method: as §1, §2, §3, §4, §5, §6

S. marcescens X 100 = assay: Sensitivity test (agar dilution); format: cell-based, Serratia marcescens; conditions: Serratia marcescens, S. marcescens X 100
Method: as §1, §2, §3, §4, §5, §6

S. marcescens GN6473 = assay: Sensitivity test (agar dilution); format: cell-based, Serratia marcescens; conditions: Serratia marcescens, S. marcescens GN6473
Method: as §1, §2, §3, §4, §5, §6

[1] = GN346, drug alone, read-out: MIC alone
[2] = GN7471, drug alone, read-out: MIC alone
[3] = IAM1296, drug alone, read-out: MIC alone
[4] = IFO3451, drug alone, read-out: MIC alone
[5] = TL2667, drug alone, read-out: MIC alone
[6] = TL2666, drug alone, read-out: MIC alone
[7] = GN2425, drug alone, read-out: MIC alone
[8] = ML1410RP4, read-out: MIC alone, drug alone
[9] = ATCC25238, drug alone, read-out: MIC alone
[10] = ATCC8176, drug alone, read-out: MIC alone
[11] = ATCC19433, drug alone, read-out: MIC alone
[12] = X100, drug alone, read-out: MIC alone
[13] = GN6473, drug alone, read-out: MIC alone

SMILES | MIC (C. freundii GN346; [1]) | MIC (E. cloacae GN7471; [2]) | MIC (S. epidermidis IAM1296; [3]) | MIC (P. aeruginosa IFO3451; [4]) | MIC (P. aeruginosa TL-2667; [5]) | MIC (P. aeruginosa TL-2666; [6]) | MIC (P. mirabiris GN2425; [7]) | MIC (E. coli ML1410 RP4; [8]) | MIC (M. catarrhalis ATCC25238; [9]) | MIC (M. catarrhalis ATCC8176; [10]) | MIC (E. faecalis ATCC19433; [11]) | MIC (S. marcescens X 100; [12]) | MIC (S. marcescens GN6473; [13]) | other results
C[C@H]1[C@H](NC(=O)/C(=N\OC(C)(C)C(=O)O)c2csc(N)n2)C(=O)N1S(=O)(=O)O [AZT, aztreonam] | 0.5 µg/mL | 16 µg/mL | > 32 µg/mL | 2 µg/mL | 2 µg/mL | 2 µg/mL | 0.004 µg/mL | 0.125 µg/mL | 0.125 µg/mL | 0.25 µg/mL | > 32 µg/mL | 0.063 µg/mL | 0.125 µg/mL | MIC (C. freundii GN346; GN346, Concomitant (AZT:SM = 1:1), read-out: MIC concomitant): 8 µg/mL; MIC (E. cloacae GN7471; GN7471, Concomitant (AZT:SM = 1:1), read-out: MIC concomitant): 4 µg/mL; MIC (S. epidermidis IAM1296; IAM1296, Concomitant (AZT:SM = 1:1), read-out: MIC concomitant): 0.031 µg/mL; MIC (P. aeruginosa IFO3451; IFO3451, Concomitant (AZT:SM = 1:1), read-out: MIC concomitant): 2 µg/mL; MIC (P. aeruginosa TL-2667; TL2667, Concomitant (AZT:SM = 1:1), read-out: MIC concomitant): 8 µg/mL; MIC (P. aeruginosa TL-2666; TL2666, Concomitant (AZT:SM = 1:1), read-out: MIC concomitant): 8 µg/mL; MIC (P. mirabiris GN2425; GN2425, Concomitant (AZT:SM = 1:1), read-out: MIC concomitant): 0.004 µg/mL; MIC (E. coli ML1410 RP4; ML1410RP4, read-out: MIC concomitant, Concomitant (AZT:SM = 1:1)): 0.063 µg/mL; MIC (M. catarrhalis ATCC25238; ATCC25238, Concomitant (AZT:SM = 1:1), read-out: MIC concomitant): ≤ 0.002 µg/mL; MIC (M. catarrhalis ATCC8176; ATCC8176, Concomitant (AZT:SM = 1:1), read-out: MIC concomitant): ≤ 0.002 µg/mL; MIC (E. faecalis ATCC19433; ATCC19433, Concomitant (AZT:SM = 1:1), read-out: MIC concomitant): 1 µg/mL; MIC (S. marcescens X 100; X100, Concomitant (AZT:SM = 1:1), read-out: MIC concomitant): 0.031 µg/mL; MIC (S. marcescens GN6473; GN6473, Concomitant (AZT:SM = 1:1), read-out: MIC concomitant): 0.25 µg/mL
C[C@@H](O)[C@H]1C(=O)N2C(C(=O)[O-])=C(SC3Cn4cnc[n+]4C3)[C@H](C)[C@H]12 (stereo partly drawn) [BIPM, biapenem] | 0.25 µg/mL | 0.063 µg/mL | 1 µg/mL | 0.25 µg/mL | 8 µg/mL | 1 µg/mL | 0.25 µg/mL | 0.25 µg/mL | 0.016 µg/mL | 0.031 µg/mL | 4 µg/mL | 0.063 µg/mL | 0.125 µg/mL | MIC (C. freundii GN346; GN346, Concomitant (BIPM:SM = 1:1), read-out: MIC concomitant): 0.125 µg/mL; MIC (E. cloacae GN7471; GN7471, Concomitant (BIPM:SM = 1:1), read-out: MIC concomitant): 0.063 µg/mL; MIC (S. epidermidis IAM1296; IAM1296, Concomitant (BIPM:SM = 1:1), read-out: MIC concomitant): 0.031 µg/mL; MIC (P. aeruginosa IFO3451; IFO3451, Concomitant (BIPM:SM = 1:1), read-out: MIC concomitant): 0.25 µg/mL; MIC (P. aeruginosa TL-2667; TL2667, Concomitant (BIPM:SM = 1:1), read-out: MIC concomitant): 4 µg/mL; MIC (P. aeruginosa TL-2666; TL2666, Concomitant (BIPM:SM = 1:1), read-out: MIC concomitant): 1 µg/mL; MIC (P. mirabiris GN2425; GN2425, Concomitant (BIPM:SM = 1:1), read-out: MIC concomitant): 0.125 µg/mL; MIC (E. coli ML1410 RP4; ML1410RP4, read-out: MIC concomitant, Concomitant (BIPM:SM = 1:1)): 0.125 µg/mL; MIC (M. catarrhalis ATCC25238; ATCC25238, Concomitant (BIPM:SM = 1:1), read-out: MIC concomitant): ≤ 0.002 µg/mL; MIC (M. catarrhalis ATCC8176; ATCC8176, Concomitant (BIPM:SM = 1:1), read-out: MIC concomitant): ≤ 0.002 µg/mL; MIC (E. faecalis ATCC19433; ATCC19433, Concomitant (BIPM:SM = 1:1), read-out: MIC concomitant): 1 µg/mL; MIC (S. marcescens X 100; X100, Concomitant (BIPM:SM = 1:1), read-out: MIC concomitant): 0.063 µg/mL; MIC (S. marcescens GN6473; GN6473, Concomitant (BIPM:SM = 1:1), read-out: MIC concomitant): 0.125 µg/mL
CC(C)(O/N=C(\C(=O)N[C@@H]1C(=O)N2C(C(=O)[O-])=C(C[n+]3ccccc3)CS[C@H]12)c1csc(N)n1)C(=O)O [CAZ, ceftazidime] | 1 µg/mL | 32 µg/mL | > 32 µg/mL | 1 µg/mL | 1 µg/mL | 0.5 µg/mL | 0.063 µg/mL | 0.5 µg/mL | 0.016 µg/mL | 0.016 µg/mL | > 32 µg/mL | 0.25 µg/mL | 0.5 µg/mL | MIC (C. freundii GN346; GN346, Concomitant (CAZ:SM = 1:1), read-out: MIC concomitant): 8 µg/mL; MIC (E. cloacae GN7471; GN7471, Concomitant (CAZ:SM = 1:1), read-out: MIC concomitant): 8 µg/mL; MIC (S. epidermidis IAM1296; IAM1296, Concomitant (CAZ:SM = 1:1), read-out: MIC concomitant): 0.031 µg/mL; MIC (P. aeruginosa IFO3451; IFO3451, Concomitant (CAZ:SM = 1:1), read-out: MIC concomitant): 2 µg/mL; MIC (P. aeruginosa TL-2667; TL2667, Concomitant (CAZ:SM = 1:1), read-out: MIC concomitant): 8 µg/mL; MIC (P. aeruginosa TL-2666; TL2666, Concomitant (CAZ:SM = 1:1), read-out: MIC concomitant): 8 µg/mL; MIC (P. mirabiris GN2425; GN2425, Concomitant (CAZ:SM = 1:1), read-out: MIC concomitant): 0.031 µg/mL; MIC (E. coli ML1410 RP4; ML1410RP4, read-out: MIC concomitant, Concomitant (CAZ:SM = 1:1)): 0.125 µg/mL; MIC (M. catarrhalis ATCC25238; ATCC25238, Concomitant (CAZ:SM = 1:1), read-out: MIC concomitant): ≤ 0.002 µg/mL; MIC (M. catarrhalis ATCC8176; ATCC8176, Concomitant (CAZ:SM = 1:1), read-out: MIC concomitant): ≤ 0.002 µg/mL; MIC (E. faecalis ATCC19433; ATCC19433, Concomitant (CAZ:SM = 1:1), read-out: MIC concomitant): 1 µg/mL; MIC (S. marcescens X 100; X100, Concomitant (CAZ:SM = 1:1), read-out: MIC concomitant): 0.125 µg/mL; MIC (S. marcescens GN6473; GN6473, Concomitant (CAZ:SM = 1:1), read-out: MIC concomitant): 0.5 µg/mL
